{"source": "patent US20230218657A1", "about": "“COMPOSITIONS, THEIR USES IN THERAPY AND METHODS THEREOF” (National University of Singapore, priority 2020, published 2023)", "type_in_all_cases": "in vivo", "key": {"apoE-/- mice [1]": {"test_system": "apoE-/- mice", "test": "Footpad tissue edema / swelling observed macroscopically in apoE-/- mice", "source_text": "(§1) To evaluate the effect of cyclodextrin on secondary lymphedema, an animal model of lymphatic insufficiency that mimics human pathophysiology of lymphedema was used, e.g adipose tissue remodeling, lipid accumulation, inflammation and fibrosis. This mouse model can be apoE lipoprotein E deficient mice. […] It is believed that this lymphatic insufficiency leads to adipose tissue expansion and then loss and fibrosis as also observed in human secondary lymphedema. To confirm this, female apoE-/- mice were treated with 2 g/kg body of cyclodextrin […] subcutaneously or vehicle alone (saline) subcutaneously every alternative day for a total of 2, 4 or 8 doses. Mice were euthanized, tissue swelling was observed macroscopically and lymphatic transport was examined by following up the transport of FITC dextran from the front footpad to the draining lymph nodes. Skin tissues was also examined histologically for lipid content (Oil red O staining).\nFIG. 1 illustrates images of footpads from female wild-type (WT) or apoE-/-mice after receiving subcutaneous injection of cyclodextrin (CD; 2 g/kg body weight) or saline (control, NT) every alternative day for a total of 4 doses and harvested when mice were 17 weeks old on high fat diet. Swelling of the footpad of the mice was observed macroscopically (arrow heads: swelling region)."}, "apoE-/- mice [2]": {"test_system": "apoE-/- mice", "test": "Oil red O staining of footpad skin for lipid accumulation", "settings": "2 g/kg subcutaneous, alternate days, 4 doses; female apoE-/- mice, 17 weeks old, high fat diet; vs saline", "source_text": "as §1\nFIG. 2 illustrates microscopic images of female WT or apoE-/- mice after receiving subcutaneous injection of cyclodextrin (CD; 2 g/kg body weight) or saline (control, NT) every alternative day for a total of 4 doses and harvested when mice were 17 weeks old on high fat diet. Section of footpad skin were stained for neutral lipid with Oil red O (red staining) to identify lipid accumulation in the tissue."}, "apoE-/- mice [3]": {"test_system": "apoE-/- mice", "test": "Lymphatic transport of FITC dextran from footpad to draining lymph node", "source_text": "as §1\nFIG. 3 plots the relative fluorescence in the lymph nodes of respective female WT or apoE-/- mice after receiving subcutaneous injection of cyclodextrin (CD; 2 g/kg body weight) or Saline (control, NT) every alternative day for a total of 4 doses. The mice were harvested when the mice were 17 weeks old on high fat diet. Lymphatic drainage was assessed by measuring the transport of fluorescent dextran from the footpad (site of injection) to the draining lymph node.\nFIG. 4 plots the relative fluorescence in the lymph nodes of the respective mice under a different dosage regime."}, "apoE-/- mice [4]": {"test_system": "apoE-/- mice", "test": "Total cholesterol in front footpad and plasma cholesterol", "source_text": "Cyclodextrin was administrated subcutaneously alternate days."}, "apoE-/- mice [5]": {"test_system": "apoE-/- mice", "test": "Masson's Trichrome staining of back skin (fibrosis, collagen deposition)", "settings": "17 weeks old, particularly the 8 doses regime", "experimental": "(§2) The formulation was assessed if it can reverses some tissue changes associated with lymphedema including fibrosis and inflammation.\nCollagen was stained in blue, muscle and cytoplasm was stained in red and the nucleus was stained in black."}, "apoE-/- mice [6]": {"test_system": "apoE-/- mice", "test": "CD68 immunofluorescence staining of back skin (inflammation, macrophage infiltration)", "settings": "17 weeks old, particularly the 8 doses regime", "experimental": "as §2\nCD68 is a pan-macrophage marker, perilipin was used to identify adipocytes and DAPI stains for the nucleus."}, "[7]": {"settings": "8 doses, apoE-/- mice at 42 weeks of age (greater severity)"}}, "note": "“Also recorded” adds a separate entry of the source.", "data": [{"substance": "cyclodextrin", "values": [{"measurement": "tissue edema / footpad swelling", "setting": "apoE-/- mice [1]; 2 g/kg subcutaneous, alternate days, 4 doses, female apoE-/- mice, 17 weeks old, high fat diet, vs saline", "value": "improved significantly tissue edema in the footpad; also recorded: decreased footpad swelling"}, {"measurement": "tissue swelling", "setting": "apoE-/- mice [1]; [7]", "value": "not able to improve lymphatic function and ameliorate tissue changes such as tissue swelling"}, {"measurement": "reducing lymphedema", "setting": "apoE-/- mice [1]; intradermal injection, animal model of lymphedema (summary statement)", "value": "effective in reducing lymphedema"}, {"measurement": "lipid accumulation in footpad skin (Oil red O staining)", "setting": "apoE-/- mice [2]", "value": "decreased lipid accumulation; also recorded: decreased accumulation of lipids"}, {"measurement": "lymphatic function", "setting": "apoE-/- mice [3]; 2 g/kg subcutaneous, alternate days, 2 doses, female apoE-/- mice, 17 weeks old", "value": "improved lymphatic function but in lesser extent compared to 4 doses; also recorded: sufficient to improve lymphatic function"}, {"measurement": "lymphatic transport / lymphatic function", "setting": "apoE-/- mice [3]; 2 g/kg subcutaneous, alternate days, 4 doses, female apoE-/- mice, 17 weeks old", "value": "completely restored lymphatic transport; also recorded: restoring completely lymphatic function; also recorded: completely restored it"}, {"measurement": "lymphatic function", "setting": "apoE-/- mice [3]; 2 g/kg subcutaneous, alternate days, 8 doses, female apoE-/- mice, 17 weeks old, compared to 4 doses", "value": "did not further enhance lymphatic function; also recorded: did not improve further lymphatic function"}, {"measurement": "lymphatic function", "setting": "apoE-/- mice [3]; [7]", "value": "not able to improve lymphatic function"}, {"measurement": "plasma cholesterol levels", "setting": "apoE-/- mice [4]; apoE-/- mice treated with cyclodextrin", "value": "does not affect plasma cholesterol levels"}, {"measurement": "tissue cholesterol (total cholesterol in front footpad)", "setting": "apoE-/- mice [4]; subcutaneous, alternate days, 4 or 8 doses, apoE-/- mice, 17 weeks old", "value": "reduces tissue cholesterol; also recorded: decreased total cholesterol levels in the front foot pad"}, {"measurement": "fibrosis (collagen deposition) in back skin", "setting": "apoE-/- mice [5]", "value": "reduces fibrosis"}, {"measurement": "inflammation (infiltration of macrophages in adipose tissue, CD68) in back skin", "setting": "apoE-/- mice [6]", "value": "reduces fibrosis (FIG. 7A) and inflammation; also recorded: the extent of macrophage accumulation and crown-like structures (white boxes) decreases"}]}]}
